# Measurements from US12157746B2, “Tetrahydro-1H-pyrazino[2,1-a]isoindolylquinoline compounds for the treatment of autoimmune disease” (F. HOFFMANN-LA ROCHE AG, priority 2018, dated 2024).
# Assay: Human microsomal stability assay
# Assay type: in vitro ADME
# Details: human liver microsomes 0.5 mg/mL, 37° C., pH 7.4, NADPH regenerating system, 0-30 minutes
# Procedure: Human Microsomal Stability Assay
# Human liver microsomes (Cat. NO.: 452117, Corning, USA) were preincubated with test compound for 10 minutes at 37° C. in 100 mM potassium phosphate buffer, pH 7.4. The reactions were initiated by adding NADPH regenerating system. The final incubation mixtures contained […] test compound, 0.5 mg/mL liver microsomal protein, 1 mM MgCl2, 1 mM NADP, 1 unit/mL isocitric dehydrogenase and 6 mM isocitric acid in 100 mM potassium phosphate buffer, pH 7.4. After incubation times of 0, 3, 6, 9, 15 and 30 minutes at 37° C., 300 μL of cold ACN (including internal standard) was added to 100 μL incubation mixture to terminate the reaction. Following precipitation and centrifugation, 100 μL supernatant will be taken out and added 300 uL water. The amount of compound remaining in the samples was determined by LC-MS/MS. Controls of no NADPH regenerating system at zero and 30 minutes were also prepared and analyzed. The results were categorized as: low (<7.0 mLJmin/kg), medium (7.0-16.2 mL/min/kg) and high (16.2-23.2 mLJmin/kg).
row,CL (h),SMILES
1,7.7 mL/min/kg,"C[C@@H]1CN(c2ccc(C#N)c3ncccc23)C[C@@H]2c3ccc(OC4CNC4)cc3CN12 [Example 27, 5-[(4R,10bS)-8-(azetidin-3-yloxy)-4-methyl-3,4,6,10b-tetrahydro-1H-pyrazino[2,1-a]isoindol-2-yl]quinoline-8-carbonitrile]"
2,8.0 mL/min/kg,"C[C@@H]1CN(c2ccc(C#N)c3ncccc23)C[C@@H]2c3ccc(C(=O)N4C[C@@H]5C[C@H]4CN5)cc3CN12 [Example 87, 5-[(4R,10bS)-8-[(1S,4S)-2,5-diazabicyclo[2.2.1]heptane-2-carbonyl]-4-methyl-3,4,6,10b-tetrahydro-1H-pyrazino[2,1-a]isoindol-2-yl]quinoline-8-carbonitrile]"
3,8.0 mL/min/kg,"C[C@@H]1CN(c2ccc(C#N)n3nccc23)C[C@@H]2c3ccc(N4CCC(C)(N)CC4)cc3CN12 [Example 100, 4-[(4R,10bS)-8-(4-amino-4-methyl-1-piperidyl)-4-methyl-3,4,6,10b-tetrahydro-1H-pyrazino[2,1-a]isoindol-2-yl]pyrazolo[1,5-a]pyridine-7-carbonitrile]"
4,7.7 mL/min/kg,"C[C@@H]1CN(c2ccc(C#N)c3ncccc23)C[C@@H]2c3ccc(C(=O)N4CCNCC4)cc3CN12 [Example 86, 5-[(4R,10bS)-4-methyl-8-(piperazine-1-carbonyl)-3,4,6,10b-tetrahydro-1H-pyrazino[2,1-a]isoindol-2-yl]quinoline-8-carbonitrile]"
